Reference: patent US20250275959A1, “COMPOUNDS AND METHODS OF THEIR USE” (LEXICON PHARMACEUTICALS, INC., priority 2024, published 2025)

Legend:
[1] = biological target: T1, hACSL5 (Homo sapiens (Human), UniProt Q9ULC5); assay: Human ACSL5 coupled enzyme Amplex Red assay; assay type: biochemical; details: read-out: hACSL5 IC50
Summary of the method: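 Amplex Red coupled readout: 1 mM ATP, 25 μM oleate and 30 μM CoA were added to compound-preincubated enzyme (20 nM, residues 33-683, insect-cell expressed, His-tagged) with coupling peroxidase and acyl-CoA oxidase at pH 7.6. Signal was read at 535/590 nm after 10 minutes at 25° C., and Hill fits yielded half-maximal and maximal inhibition.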
Target sequence in this assay (Q9ULC5 33-683): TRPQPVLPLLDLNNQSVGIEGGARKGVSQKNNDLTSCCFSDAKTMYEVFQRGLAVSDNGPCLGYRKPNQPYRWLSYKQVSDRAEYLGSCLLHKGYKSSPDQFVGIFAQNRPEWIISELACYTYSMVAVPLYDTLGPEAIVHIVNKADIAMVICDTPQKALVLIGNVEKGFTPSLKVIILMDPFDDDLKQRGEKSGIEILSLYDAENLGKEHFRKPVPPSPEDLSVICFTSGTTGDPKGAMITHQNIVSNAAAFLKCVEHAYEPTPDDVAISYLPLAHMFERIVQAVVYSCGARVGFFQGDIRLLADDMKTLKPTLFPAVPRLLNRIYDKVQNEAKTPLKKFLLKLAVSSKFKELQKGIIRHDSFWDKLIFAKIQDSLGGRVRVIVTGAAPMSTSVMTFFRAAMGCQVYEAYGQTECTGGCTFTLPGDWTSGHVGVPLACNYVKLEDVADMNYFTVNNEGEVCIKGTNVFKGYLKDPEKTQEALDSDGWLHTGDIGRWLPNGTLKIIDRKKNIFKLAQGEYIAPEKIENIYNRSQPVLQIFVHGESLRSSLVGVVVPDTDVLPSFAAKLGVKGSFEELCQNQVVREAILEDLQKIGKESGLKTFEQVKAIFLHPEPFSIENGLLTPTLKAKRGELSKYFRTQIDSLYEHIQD

[2] = biological target: T1, hACSL5; assay: Cell-based assay (CBA) with B12FA in hACSL5-transfected Expi293F / FlpIn TRex293 cells; details: hACSL5-expressing cells
Summary of the method: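 hACSL5-expressing Expi293F or tetracycline-induced FlpIn TRex293 cells, serum- and glucose-starved 1 h, then treated 3 h with serially diluted compound plus 20 µM B12FA. After fixation, 630/520 nm emission ratio (ex 485 nm) gave % inhibition versus no-inhibitor and 10 µM compound/non-induced controls; IC50 by Hill fit.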
Target sequence in this assay (Q9ULC5 whole entry, the tested form may be a part): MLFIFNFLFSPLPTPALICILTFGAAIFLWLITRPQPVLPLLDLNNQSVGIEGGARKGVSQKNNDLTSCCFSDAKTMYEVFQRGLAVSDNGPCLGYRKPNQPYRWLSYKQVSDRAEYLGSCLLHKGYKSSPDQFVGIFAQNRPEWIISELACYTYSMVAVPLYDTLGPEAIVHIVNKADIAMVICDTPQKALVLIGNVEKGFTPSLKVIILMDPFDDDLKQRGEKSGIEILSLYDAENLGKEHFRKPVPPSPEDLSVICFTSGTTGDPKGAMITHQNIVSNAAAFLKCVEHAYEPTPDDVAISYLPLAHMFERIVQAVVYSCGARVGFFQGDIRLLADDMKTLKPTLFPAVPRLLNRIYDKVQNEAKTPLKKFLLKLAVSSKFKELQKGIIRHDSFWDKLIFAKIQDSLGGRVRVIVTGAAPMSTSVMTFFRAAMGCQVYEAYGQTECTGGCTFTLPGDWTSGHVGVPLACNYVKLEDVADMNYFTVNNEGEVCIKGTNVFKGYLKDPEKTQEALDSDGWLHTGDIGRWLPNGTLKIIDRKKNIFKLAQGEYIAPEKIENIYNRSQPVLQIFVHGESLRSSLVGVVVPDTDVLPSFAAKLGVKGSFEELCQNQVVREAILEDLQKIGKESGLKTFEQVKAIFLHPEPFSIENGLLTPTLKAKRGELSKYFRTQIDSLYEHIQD

IC50 [1] | IC50 [2] | Structure (SMILES)
< 100 nM | 100 to 500 nM | CC[C@@H](Oc1ccc(C(=O)NS(=O)(=O)c2ccc(OCCN(C)C)cc2)c(F)c1F)c1ccc(OCC2CC2)cn1 [Compound B, (R)-4-(1-(5-(cyclopropylmethoxy)pyridin-2-yl)propoxy)-N-((4-(2-(dimethylamino)ethoxy)phenyl)sulfonyl)-2,3-difluorobenzamide]
< 100 nM | 100 to 500 nM | CC[C@@H](Oc1ccc(C(=O)NS(=O)(=O)N2CCC(OCCN(C)C)CC2)c(F)c1F)c1ccc(Oc2ccccn2)cn1 [Compound C, (R)-N-((4-(2-(dimethylamino)ethoxy)piperidin-1-yl)sulfonyl)-2,3-difluoro-4-(1-(5-(pyridin-2-yloxy)pyridin-2-yl)propoxy)benzamide]
< 100 nM | < 100 nM | CC[C@@H](Oc1ccc(C(=O)NS(=O)(=O)N2CCN(C)CC2)c(F)c1F)c1ccc(Oc2ccccn2)cn1 [Compound D, (R)-2,3-difluoro-N-((4-methylpiperazin-1-yl)sulfonyl)-4-(1-(5-(pyridin-2-yloxy)pyridin-2-yl)propoxy)benzamide]
